# Read-outs that look alike come from different tables or passages of the source.
# Tests used:
# Assay type in all cases: cell-based
# C. albicans (ATCC 90028) = assay: Zone of inhibition study (disc on agar plate); conditions: radius around 12 mm disc, 24 hours at 37±1° C., triplicates, Flucanazole 25 μg/Disc
# Method: (§1) The microbicidal composite material was tested in triplicates against E. coli (ATCC25922), S. aureus (ATCC 25923), P. aeruginosa (ATCC 9027) and C. albicans (ATCC 90028). The test material was cut as a 12 mm diameter disc and placed on 90 mm agar plates spread with 100 μl of approximately 10^8 CFU/ml of each bacterial strain and incubated at 37±1° C. for 24 hours. For a negative control, a filter paper disc containing no antibiotic was used. The zone of inhibition (Radius in mm) around the discs was measured using a transparent ruler. The results of this test are tabulated as under Table-5.
# [1] = test system: P. aeruginosa (ATCC 9027); assay: Zone of inhibition study (disc on agar plate); conditions: radius around 12 mm disc, 24 hours at 37±1° C., triplicates
# Method: as §1
# E. coli (ATCC25922) = assay: Zone of inhibition study (disc on agar plate); conditions: radius around 12 mm disc, 24 hours at 37±1° C., triplicates, Ciprofloxacin 1 μg/Disc
# Method: as §1
# S. aureus (ATCC 25923) [2] = assay: Zone of inhibition study (disc on agar plate); conditions: radius around 12 mm disc, 24 hours at 37±1° C., triplicates
# Method: as §1
# P. aeruginosa [3] = assay: Residual microbes on ZOI disc after transfer to Nutrient broth
# Method: (§2) After 24 hours, the discs were transferred to Nutrient broth which was then incubated at 37±1° C. for another 24 hours. The broth contents were placed on Nutrient agar plates to measure the residual percentage of microbes present on the disc as a result of remaining on a lawn of bacteria overnight. Percentage survival was calculated as [number of CFU/ml in test substance/number of CFU/ml in control substance]. The killing percentage was calculated as 100-residual percentage. The results are tabulates as under Table-6.
# C. albicans = assay: as above
# Method: as §2
# S. aureus [4] = assay: as above
# Method: as §2
# E. coli = assay: as above
# Method: as §2
# P. aeruginosa [5] = assay: Bio film prevention assay (crystal violet, OD 570 nm); conditions: Pseudomonas aeruginosa, 15 mm disc, Ciprofloxacin 1 ug/ml, versus control, read-out: % Inhibition, Percentage Effect in Bio film prevention assay
# Method: (§3) 15 millimeters (mm) Discs of the microbicidal composite material were cut and placed into 24 well plates containing approximately 10^8 CFU/ml in Tryptic Soy Broth (TSB) of P. aeruginosa and S. aureus respectively and incubated at 37±1° C. for the Bio film Prevention assay. Similarly, 15 millimeter (mm) Discs of the microbicidal composite material were cut and placed into 24 well plates containing overnight grown culture of P. aeruginosa and S. aureus respectively in TSB and further incubated for 24 hours at 37±1° C. for the disruption assay.
# (§4) Further, plain filter paper discs were placed in culture control (C) wells with approximately 10^8 CFU/ml of the above bacteria in Tryptic Soy Broth (TSB) for both the Prevention and Disruption assay. After incubation, the contents were removed and washed four times with Phosphate Buffer saline (pH 7.2). A 500 μl of 0.1% crystal violet stain was added to each well and incubated for 20 minutes at room temperature, washed, and dried. Subsequently, 500 μl of ethanol supplemented with 2% acetic acid was added to each well for 30 min. The Optical Density (OD) of stained adherent Bio film was obtained by using a Tecan plate reader at 570 nm wavelength. Percentage inhibitions in the respective assays were calculated in comparison to the control.
# S. aureus [6] = assay: as above; conditions: Staphylococcus aureus, 15 mm disc, Ciprofloxacin 1 ug/ml, versus control, read-out: % Inhibition, Percentage Effect in Bio film prevention assay
# Method: as §3, §4
# [7] = test system: P. aeruginosa (ATCC 9027); assay: Rate of microbicidal effect upon contact (CFU enumeration over time); conditions: Pseudomonas aeruginosa, 15 mm disc in approximately 10^8 CFU/ml, ciprofloxacin 1 μg/disc, read-out: killing percentage (inhibition of growth as percentage)
# Method: (§5) Briefly, 15 millimeter (mm) discs of the microbicidal composite material were cut and placed into 24 well plates containing approximately 10^8 CFU/ml in Nutrient broth of S. aureus (ATCC 25923) & P. aeruginosa (ATCC 9027) respectively and incubated at 37±1° C. At intervals of 1, 5, 15, 30 and 60 minutes, broth samples were drawn and plated on nutrient agar plates and incubated for 24 hours at 37±1° C. for CFU enumeration. Two reference standards (ref-1, and ref-2) [Ref-1: Reference standard-I, includes a test material which is a cotton gauze material bonded with non siloxane based QAS and Ref-2: Reference standard-II includes a test material with active ingredient as silver Test Item refers to the ‘Microbicidal Composite Material’] and a disc containing 1 μg/disc ciprofloxacin. The results are tabulated in table 8 and table 9 as percentage recovery over time. Percentage survival was calculated as number of CFU/ml in test substance/number of CFU/ml in control substance. The killing percentage was calculated as 100-residual percentage.
# (§6) FIG. 4 and FIG. 5 show the inhibition of growth as percentage in the Y-axis compared to the untreated control group.
# S. aureus (ATCC 25923) [8] = assay: as above; conditions: Staphylococcus aureus, 15 mm disc in approximately 10^8 CFU/ml, ciprofloxacin 1 μg/disc, read-out: killing percentage (inhibition of growth as percentage)
# Method: as §5, §6
# P. aeruginosa [9] = assay: Bio film disruption assay (crystal violet, OD 570 nm); conditions: Pseudomonas aeruginosa, overnight grown culture, 24 hours, 15 mm disc, Ciprofloxacin 1 ug/ml, read-out: % Inhibition, Percentage Effect in Bio film disruption assay
# Method: as §3, §4
# S. aureus [10] = assay: as above; conditions: Staphylococcus aureus, overnight grown culture, 24 hours, 15 mm disc, Ciprofloxacin 1 ug/ml, read-out: % Inhibition, Percentage Effect in Bio film disruption assay
# Method: as §3, §4
# [11] = disc from ZOI assay in Nutrient broth for another 24 hours, CFU/ml versus control
smiles,measurement,setting,value
OC(Cn1cncn1)(Cn1cncn1)c1ccc(F)cc1F [Flucanazole],ZOI (in mm) Mean,C. albicans (ATCC 90028),3.60 mm
O=C(O)c1cn(C2CC2)c2cc(N3CCNCC3)c(F)cc2c1=O [Ciprofloxacin],ZOI (in mm) Mean,[1],9.50 mm
same,ZOI (in mm) Mean,E. coli (ATCC25922),11.00 mm
same,ZOI (in mm) Mean,S. aureus (ATCC 25923) [2],11.55 mm
same,Killing %,P. aeruginosa [3]; 100-residual percentage,99.9994%
same,Residual %,P. aeruginosa [3]; [11],0.001%
same,Killing %,C. albicans; 100-residual percentage,99.9902%
same,Residual %,C. albicans; [11],0.010%
same,Killing %,S. aureus [4]; 100-residual percentage,99.9921%
same,Residual %,S. aureus [4]; [11],0.008%
same,Killing %,E. coli; 100-residual percentage,99.9997%
same,Residual %,E. coli; [11],0.000%
same,inhibition at 1 µg/mL,P. aeruginosa [5],89.8%
same,inhibition at 1 µg/mL,S. aureus [6],93.1%
same,inhibition at 1 µg/disc,"[7]; ATCC9027, 1 min, 1 minute",0%
same,inhibition at 1 µg/disc,"[7]; ATCC9027, 5 min, 5 minutes",32.4%
same,inhibition at 1 µg/disc,"[7]; ATCC9027, 0.25 h, 15 minutes",87.4%
same,inhibition at 1 µg/disc,"[7]; ATCC9027, 0.5 h, 30 minutes",98%
same,inhibition at 1 µg/disc,"[7]; ATCC9027, 1 h, 60 minutes",99.9%
same,inhibition at 1 µg/disc,"S. aureus (ATCC 25923) [8]; ATCC25923, 1 min, 1 minute",0%
same,inhibition at 1 µg/disc,"S. aureus (ATCC 25923) [8]; ATCC25923, 5 min, 5 minutes",32%
same,inhibition at 1 µg/disc,"S. aureus (ATCC 25923) [8]; ATCC25923, 0.25 h, 15 minutes",86.2%
same,inhibition at 1 µg/disc,"S. aureus (ATCC 25923) [8]; ATCC25923, 0.5 h, 30 minutes",79.1%
same,inhibition at 1 µg/disc,"S. aureus (ATCC 25923) [8]; ATCC25923, 1 h, 60 minutes",98.8%
same,inhibition at 1 µg/mL,P. aeruginosa [9],91.4%
same,inhibition at 1 µg/mL,S. aureus [10],88.2%
